Data reported in patent publication EP2752414A1, “Crystalline form of apixaban” (Sandoz AG, priority 2013, dated 2014).
In brackets after ≈: the same amount, converted by molar mass.

Assays:
[1] = Equilibrium solubility, shake flask method (European Pharmacopeia); format: physicochemical; details: for Equilibrium solubility / solubility thermodynamic at 24 h: shaking at 400 rpm for 24 hours; for solubility thermodynamic at 24 h: aqueous buffer, 37 °C, thermodynamic from solid
Method: As used herein, the term "equilibrium solubility" refers to the maximum solubility of apixaban in various aqueous media of buffers of pH 1.2, 4.5 and 6.8 at 37 °C after 24 hours. The shaking is carried out at 400 rpm.
(§1) Equilibrium solubility of crystalline polymorphic Form A of apixaban and references apixaban Form N-1 was performed in various aqueous media of buffers of pH 1.2, 4.5 and 6.8 at 37°C. The solubility was measured using "shake flask" method described in European Pharmacopeia. The shaking was carried out at 400 RMP for 24 hours. Table 2: Equilibrium solubility of crystalline polymorphic Form A of apixaban and reference apixaban Form N-1 in various aqueous media of buffers.
as §1, with “rmp” for “RMP”

[2] = Physical stability of the crystalline form on storage at room atmosphere conditions; format: physicochemical; details: after 8 months stored at room atmosphere conditions
Text: For a pharmaceutical use a solubility of the form which active pharmaceutical ingredient forms is a criterion of exceptional importance under certain circumstances depending on the choice of formulation or the choice of manufacturing process. For drugs which are to be taken orally it is, in general, very important that active pharmaceutical ingredients are sufficiently soluble and bioavailable. Apixaban is such a drug, i.e. characterized by a low solubility in aqueous media. Unexpectedly, improved solubility of crystalline polymorph Form A of apixaban contributes to sufficient bioavailability of apixaban containing drugs. At the same time, a high physical stability of crystalline Form A is preserved.

Compound | Equilibrium solubility ([1]; aqueous buffer pH 6.8, 37°C) [µg/mL] | solubility thermodynamic at 24 h ([1]; pH 1.2, simulated gastric fluid, aqueous buffer pH 1.2, 37°C) [µg/mL] | solubility thermodynamic at 24 h ([1]; pH 4.5, aqueous buffer, aqueous buffer pH 4.5, 37°C) [µg/mL] | Equilibrium solubility ([1]; aqueous buffer pH 1.2, 37°C) [µg/mL] | Equilibrium solubility ([1]; aqueous buffer pH 4.5, 37°C) [µg/mL] | comparison of equilibrium solubility with reference polymorph Form N-1 ([1]; aqueous buffers pH 1.2, 4.5 and 6.8, 37°C (Table 2)) | physical stability (crystalline structure) [2]
COc1ccc(-n2nc(C(N)=O)c3c2C(=O)N(c2ccc(N4CCCCC4=O)cc2)CC3)cc1 [Form N-1, 1-(4-methoxyphenyl)-7-oxo-6-(4-(2-oxopiperidin-1-yl)phenyl)-4,5,6,7-tetrahydro-1H-pyrazolo[3,4-c]pyridine-3-carboxamide, reference compound] | 30 | 44 (≈ 95.8 µM) | 53 (≈ 115 µM) |  |  |  | 
COc1ccc(-n2nc(C(N)=O)c3c2C(=O)N(c2ccc(N4CCCCC4=O)cc2)CC3)cc1 [Form A, 1-(4-methoxyphenyl)-7-oxo-6-(4-(2-oxopiperidin-1-yl)phenyl)-4,5,6,7-tetrahydro-1H-pyrazolo[3,4-c]pyridine-3-carboxamide] | 72 |  |  | 58 | 74 | higher solubility | the crystalline structure remains unchanged
